In ChEMBL document CHEMBL5291721, “A preclinical secondary pharmacology resource illuminates target-adverse drug reaction associations of marketed drugs” (Nat Commun, 2023):

How the values were obtained:
Melanocortin receptor 3 = Melanocortin receptor 3 (Homo sapiens, UniProt P41968)
Melanocortin receptor 4 = Melanocortin receptor 4 (Homo sapiens, UniProt P32245)
[1] = biological target: T1, Equilibrative nucleoside transporter 1 (Homo sapiens, UniProt Q99808)
T1 sequence (Q99808 whole entry): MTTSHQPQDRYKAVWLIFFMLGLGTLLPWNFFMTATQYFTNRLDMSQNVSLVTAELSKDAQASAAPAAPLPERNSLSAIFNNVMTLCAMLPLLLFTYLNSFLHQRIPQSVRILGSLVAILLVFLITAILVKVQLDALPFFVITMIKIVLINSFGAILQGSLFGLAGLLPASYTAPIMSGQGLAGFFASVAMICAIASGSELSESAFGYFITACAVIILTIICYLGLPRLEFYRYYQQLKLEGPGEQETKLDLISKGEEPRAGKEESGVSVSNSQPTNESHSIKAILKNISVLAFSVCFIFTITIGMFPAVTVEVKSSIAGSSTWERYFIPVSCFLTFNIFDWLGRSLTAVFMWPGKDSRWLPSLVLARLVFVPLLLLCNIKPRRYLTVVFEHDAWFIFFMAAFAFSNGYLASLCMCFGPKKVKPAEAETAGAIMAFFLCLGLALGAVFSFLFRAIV

[2] = biological target: 5-hydroxytryptamine receptor 2B (Homo sapiens, UniProt P41595); format: functional, cell-based
Sequence of 5-hydroxytryptamine receptor 2B (P41595 whole entry): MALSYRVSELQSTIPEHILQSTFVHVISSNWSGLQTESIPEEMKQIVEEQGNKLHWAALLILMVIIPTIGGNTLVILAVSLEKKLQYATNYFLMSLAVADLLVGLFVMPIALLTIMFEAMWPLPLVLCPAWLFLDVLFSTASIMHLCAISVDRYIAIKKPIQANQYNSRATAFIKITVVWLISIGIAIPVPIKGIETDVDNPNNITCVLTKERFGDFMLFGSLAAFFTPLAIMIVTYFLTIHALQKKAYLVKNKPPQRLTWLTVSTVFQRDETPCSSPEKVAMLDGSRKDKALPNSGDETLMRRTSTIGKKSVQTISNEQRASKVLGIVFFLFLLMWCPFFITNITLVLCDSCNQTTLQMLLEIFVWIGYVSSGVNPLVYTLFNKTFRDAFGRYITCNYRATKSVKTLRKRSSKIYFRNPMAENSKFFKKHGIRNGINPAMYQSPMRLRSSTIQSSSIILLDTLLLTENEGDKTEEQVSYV

[3] = biological target: Delta-type opioid receptor (Homo sapiens, UniProt P41143)
Sequence of Delta-type opioid receptor (P41143 whole entry): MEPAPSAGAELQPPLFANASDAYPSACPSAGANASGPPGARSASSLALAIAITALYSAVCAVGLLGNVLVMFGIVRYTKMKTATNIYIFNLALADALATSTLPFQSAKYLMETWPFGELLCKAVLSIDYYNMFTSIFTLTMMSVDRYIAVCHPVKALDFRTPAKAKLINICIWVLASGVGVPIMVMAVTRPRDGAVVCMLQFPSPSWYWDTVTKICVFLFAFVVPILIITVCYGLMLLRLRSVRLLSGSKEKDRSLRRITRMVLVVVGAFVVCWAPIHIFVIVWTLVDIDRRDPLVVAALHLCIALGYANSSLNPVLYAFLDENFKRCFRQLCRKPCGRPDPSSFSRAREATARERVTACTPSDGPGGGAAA

Adenosine receptor A2a = Adenosine receptor A2a (Homo sapiens, UniProt P29274)
Sequence of Adenosine receptor A2a (P29274 whole entry): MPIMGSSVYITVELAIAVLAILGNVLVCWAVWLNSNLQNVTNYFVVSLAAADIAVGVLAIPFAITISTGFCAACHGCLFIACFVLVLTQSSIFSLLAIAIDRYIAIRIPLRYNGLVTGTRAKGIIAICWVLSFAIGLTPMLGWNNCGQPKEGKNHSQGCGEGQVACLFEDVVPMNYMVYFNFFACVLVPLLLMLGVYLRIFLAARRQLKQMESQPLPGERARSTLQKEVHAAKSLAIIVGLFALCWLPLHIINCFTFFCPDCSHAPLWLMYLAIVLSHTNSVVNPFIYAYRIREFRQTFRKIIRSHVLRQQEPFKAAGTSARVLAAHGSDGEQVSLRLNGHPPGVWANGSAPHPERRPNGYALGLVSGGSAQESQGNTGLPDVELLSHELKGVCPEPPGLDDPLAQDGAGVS

Adenosine receptor A1 = biological target: T2, Adenosine receptor A1 (Homo sapiens, UniProt P30542)
T2 sequence (P30542 whole entry): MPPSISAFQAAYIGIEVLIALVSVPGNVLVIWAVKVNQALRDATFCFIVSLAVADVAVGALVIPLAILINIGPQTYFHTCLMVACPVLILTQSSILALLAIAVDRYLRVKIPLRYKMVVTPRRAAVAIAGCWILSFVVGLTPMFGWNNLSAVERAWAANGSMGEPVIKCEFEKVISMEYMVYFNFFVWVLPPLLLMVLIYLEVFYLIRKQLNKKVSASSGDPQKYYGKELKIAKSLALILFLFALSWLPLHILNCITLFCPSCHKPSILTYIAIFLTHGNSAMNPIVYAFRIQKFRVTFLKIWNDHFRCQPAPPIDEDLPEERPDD

[4] = biological target: Beta-1 adrenergic receptor (Homo sapiens, UniProt P08588); format: functional
Sequence of Beta-1 adrenergic receptor (P08588 whole entry): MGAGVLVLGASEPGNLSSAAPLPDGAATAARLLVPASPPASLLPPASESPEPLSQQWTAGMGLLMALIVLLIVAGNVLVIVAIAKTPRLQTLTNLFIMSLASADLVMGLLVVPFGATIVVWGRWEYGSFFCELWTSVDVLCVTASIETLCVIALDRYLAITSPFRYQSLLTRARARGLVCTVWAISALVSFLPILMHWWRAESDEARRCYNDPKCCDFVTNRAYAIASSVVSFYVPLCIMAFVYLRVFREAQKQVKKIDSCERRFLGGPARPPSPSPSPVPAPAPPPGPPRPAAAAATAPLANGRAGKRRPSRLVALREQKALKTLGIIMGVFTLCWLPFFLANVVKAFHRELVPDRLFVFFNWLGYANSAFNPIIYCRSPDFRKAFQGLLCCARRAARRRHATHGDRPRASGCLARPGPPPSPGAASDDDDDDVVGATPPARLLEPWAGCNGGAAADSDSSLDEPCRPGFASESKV

[5] = biological target: T3, Cholecystokinin receptor type A (Homo sapiens, UniProt P32238)
T3 sequence (P32238 whole entry): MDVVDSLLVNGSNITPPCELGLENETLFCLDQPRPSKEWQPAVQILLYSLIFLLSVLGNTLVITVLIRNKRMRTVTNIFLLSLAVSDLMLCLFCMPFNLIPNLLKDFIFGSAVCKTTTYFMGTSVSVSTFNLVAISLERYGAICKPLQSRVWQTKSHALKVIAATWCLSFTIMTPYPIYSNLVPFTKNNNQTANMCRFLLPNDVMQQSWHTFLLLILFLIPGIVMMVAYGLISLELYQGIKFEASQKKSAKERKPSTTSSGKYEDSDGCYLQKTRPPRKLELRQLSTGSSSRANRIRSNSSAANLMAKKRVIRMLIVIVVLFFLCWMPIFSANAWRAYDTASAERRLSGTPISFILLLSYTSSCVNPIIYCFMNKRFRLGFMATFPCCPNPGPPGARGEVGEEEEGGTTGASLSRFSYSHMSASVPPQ

Bile salt export pump = Bile salt export pump (Homo sapiens, UniProt O95342); format: functional
Sequence of Bile salt export pump (O95342 whole entry): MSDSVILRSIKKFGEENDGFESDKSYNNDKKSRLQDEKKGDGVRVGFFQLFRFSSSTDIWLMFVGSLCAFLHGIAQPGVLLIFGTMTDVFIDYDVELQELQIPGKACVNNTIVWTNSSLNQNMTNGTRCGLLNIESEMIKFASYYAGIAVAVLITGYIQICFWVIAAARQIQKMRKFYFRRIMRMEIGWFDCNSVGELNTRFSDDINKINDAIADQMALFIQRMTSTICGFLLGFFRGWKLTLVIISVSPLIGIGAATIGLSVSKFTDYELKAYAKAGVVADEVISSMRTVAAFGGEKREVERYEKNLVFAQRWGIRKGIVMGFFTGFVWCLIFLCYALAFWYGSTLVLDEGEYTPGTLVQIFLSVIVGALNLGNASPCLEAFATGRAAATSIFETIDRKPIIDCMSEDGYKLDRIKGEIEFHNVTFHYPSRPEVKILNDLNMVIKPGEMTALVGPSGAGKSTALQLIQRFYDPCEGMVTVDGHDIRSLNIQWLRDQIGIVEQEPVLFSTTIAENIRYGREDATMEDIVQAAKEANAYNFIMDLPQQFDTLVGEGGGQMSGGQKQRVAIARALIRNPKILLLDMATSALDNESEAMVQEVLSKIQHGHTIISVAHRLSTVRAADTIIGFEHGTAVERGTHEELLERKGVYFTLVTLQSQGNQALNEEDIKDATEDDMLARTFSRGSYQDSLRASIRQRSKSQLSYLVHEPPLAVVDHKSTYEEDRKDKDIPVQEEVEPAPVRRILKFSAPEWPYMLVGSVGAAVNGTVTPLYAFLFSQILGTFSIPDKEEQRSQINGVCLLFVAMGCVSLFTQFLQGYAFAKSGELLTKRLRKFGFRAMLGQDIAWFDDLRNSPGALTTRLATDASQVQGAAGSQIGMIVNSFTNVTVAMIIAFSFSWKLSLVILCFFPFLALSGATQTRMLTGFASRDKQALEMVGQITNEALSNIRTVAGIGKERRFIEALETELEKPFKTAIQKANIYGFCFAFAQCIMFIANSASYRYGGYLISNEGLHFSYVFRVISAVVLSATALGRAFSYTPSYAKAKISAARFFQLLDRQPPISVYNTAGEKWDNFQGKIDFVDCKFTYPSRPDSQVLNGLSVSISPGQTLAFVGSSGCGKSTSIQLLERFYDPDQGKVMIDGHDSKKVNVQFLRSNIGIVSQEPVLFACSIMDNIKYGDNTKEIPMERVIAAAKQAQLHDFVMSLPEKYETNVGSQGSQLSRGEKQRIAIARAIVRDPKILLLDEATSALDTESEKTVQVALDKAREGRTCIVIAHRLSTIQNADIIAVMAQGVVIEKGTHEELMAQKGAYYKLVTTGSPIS

[6] = biological target: T4, Type-1 angiotensin II receptor (Homo sapiens, UniProt P30556)
T4 sequence (P30556 whole entry): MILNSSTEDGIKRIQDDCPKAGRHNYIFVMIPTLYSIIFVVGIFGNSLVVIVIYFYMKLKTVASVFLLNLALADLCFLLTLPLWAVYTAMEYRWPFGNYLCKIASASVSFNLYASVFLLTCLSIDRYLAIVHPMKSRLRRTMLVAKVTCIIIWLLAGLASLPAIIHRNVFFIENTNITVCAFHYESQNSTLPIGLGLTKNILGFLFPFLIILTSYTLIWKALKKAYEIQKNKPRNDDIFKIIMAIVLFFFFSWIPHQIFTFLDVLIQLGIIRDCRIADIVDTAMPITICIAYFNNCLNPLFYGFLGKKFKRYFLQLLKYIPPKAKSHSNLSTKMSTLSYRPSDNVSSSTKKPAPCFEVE

Cannabinoid receptor 1 = Cannabinoid receptor 1 (Homo sapiens, UniProt P21554); format: functional, cell-based
Sequence of Cannabinoid receptor 1 (P21554 whole entry): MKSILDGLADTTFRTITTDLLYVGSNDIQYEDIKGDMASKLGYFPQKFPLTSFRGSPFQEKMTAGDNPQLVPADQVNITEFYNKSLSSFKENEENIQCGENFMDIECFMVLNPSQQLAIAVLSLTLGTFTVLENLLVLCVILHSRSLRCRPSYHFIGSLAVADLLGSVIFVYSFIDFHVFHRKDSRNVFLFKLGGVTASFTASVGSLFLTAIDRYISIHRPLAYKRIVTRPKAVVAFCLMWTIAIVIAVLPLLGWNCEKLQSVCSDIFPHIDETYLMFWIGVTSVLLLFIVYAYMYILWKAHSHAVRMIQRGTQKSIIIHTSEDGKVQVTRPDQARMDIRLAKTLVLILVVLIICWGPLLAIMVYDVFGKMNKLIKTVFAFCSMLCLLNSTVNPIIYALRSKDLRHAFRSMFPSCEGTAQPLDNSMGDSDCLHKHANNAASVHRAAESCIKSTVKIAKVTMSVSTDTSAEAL

[7] = biological target: 5-hydroxytryptamine receptor 2A (Homo sapiens, UniProt P28223); format: functional, cell-based
Mu-type opioid receptor = Mu-type opioid receptor (Homo sapiens, UniProt P35372)
Sequence of Mu-type opioid receptor (P35372 whole entry): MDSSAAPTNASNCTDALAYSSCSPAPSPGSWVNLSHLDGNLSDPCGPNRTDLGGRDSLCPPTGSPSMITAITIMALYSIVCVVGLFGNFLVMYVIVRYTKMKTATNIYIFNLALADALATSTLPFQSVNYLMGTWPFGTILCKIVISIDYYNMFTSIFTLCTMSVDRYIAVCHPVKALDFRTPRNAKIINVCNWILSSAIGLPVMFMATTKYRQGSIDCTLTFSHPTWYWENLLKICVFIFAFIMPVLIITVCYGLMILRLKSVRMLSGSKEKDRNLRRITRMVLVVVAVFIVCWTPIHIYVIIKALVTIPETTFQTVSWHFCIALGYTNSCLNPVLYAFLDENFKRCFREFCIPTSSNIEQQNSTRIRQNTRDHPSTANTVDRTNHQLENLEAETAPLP

[8] = biological target: Sodium-dependent dopamine transporter (Homo sapiens, UniProt Q01959)
[9] = biological target: T5, Alpha-1A adrenergic receptor (Homo sapiens, UniProt P35348); format: functional, cell-based
T5 sequence (P35348 whole entry): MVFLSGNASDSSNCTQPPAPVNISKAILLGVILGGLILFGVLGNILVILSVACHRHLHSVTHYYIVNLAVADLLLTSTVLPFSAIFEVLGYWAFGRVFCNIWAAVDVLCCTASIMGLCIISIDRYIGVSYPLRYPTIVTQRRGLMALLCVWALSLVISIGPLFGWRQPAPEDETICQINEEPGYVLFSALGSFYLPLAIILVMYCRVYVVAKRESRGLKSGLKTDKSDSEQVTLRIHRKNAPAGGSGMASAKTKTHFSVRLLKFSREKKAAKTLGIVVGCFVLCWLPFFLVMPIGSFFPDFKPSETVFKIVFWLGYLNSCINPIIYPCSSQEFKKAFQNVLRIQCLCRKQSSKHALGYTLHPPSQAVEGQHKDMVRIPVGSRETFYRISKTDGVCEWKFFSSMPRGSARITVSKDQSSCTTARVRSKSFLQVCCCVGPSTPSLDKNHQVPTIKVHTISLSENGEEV
Note: assay procedure not described here.

Sequence of Melanocortin receptor 3 (P41968 whole entry): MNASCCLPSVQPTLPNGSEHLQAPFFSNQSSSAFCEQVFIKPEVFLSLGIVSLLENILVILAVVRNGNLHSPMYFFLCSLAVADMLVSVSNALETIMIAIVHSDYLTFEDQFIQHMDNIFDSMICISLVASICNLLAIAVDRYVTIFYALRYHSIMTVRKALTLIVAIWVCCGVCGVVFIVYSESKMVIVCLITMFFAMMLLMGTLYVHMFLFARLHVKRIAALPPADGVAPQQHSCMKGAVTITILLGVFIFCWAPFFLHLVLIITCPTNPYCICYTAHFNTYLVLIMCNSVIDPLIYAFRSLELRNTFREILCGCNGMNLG
Sequence of Melanocortin receptor 4 (P32245 whole entry): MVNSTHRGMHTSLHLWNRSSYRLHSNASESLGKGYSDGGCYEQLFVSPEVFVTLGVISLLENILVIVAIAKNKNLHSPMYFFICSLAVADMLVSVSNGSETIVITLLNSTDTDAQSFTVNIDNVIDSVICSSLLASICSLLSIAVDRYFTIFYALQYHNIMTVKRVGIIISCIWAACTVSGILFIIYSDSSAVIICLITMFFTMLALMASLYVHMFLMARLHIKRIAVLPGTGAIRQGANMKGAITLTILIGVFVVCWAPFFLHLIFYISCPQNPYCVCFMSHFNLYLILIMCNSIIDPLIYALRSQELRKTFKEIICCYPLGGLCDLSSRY

Row | SMILES | AC50 (Melanocortin receptor 3) [µM] | AC50 (Melanocortin receptor 4) [µM] | AC50 [1] [µM] | AC50 [2] [µM] | AC50 [3] [µM] | AC50 (Adenosine receptor A2a) [µM] | AC50 (Adenosine receptor A1) [µM] | AC50 [4] [µM] | AC50 [5] [µM] | AC50 (Bile salt export pump) [µM] | AC50 [6] [µM] | AC50 (Cannabinoid receptor 1) [µM] | AC50 [7] [µM] | AC50 (Mu-type opioid receptor) [µM] | AC50 [8] [µM] | AC50 [9] [µM]
1 | NS(=O)(=O)c1cc2c(cc1Cl)NCNS2(=O)=O [HYDROCHLOROTHIAZIDE] | > 30 | > 30 | > 30 | > 10 | > 10 | > 30 | > 30 | > 10 | > 30 | > 300 | > 30 |  |  |  |  | 
2 | NC1=NC(=O)C(c2ccccc2)O1 (stereo not drawn) [PEMOLINE] | > 30 | > 30 | > 30 | > 10 | > 30 | > 30 | > 30 | > 10 | > 30 | > 300 | > 30 |  |  |  |  | 
3 | CCN(CC)CCNC(=O)c1cc(Cl)c(N)cc1OC [METOCLOPRAMIDE] | > 30 | > 30 | > 30 | > 10 | > 30 | > 30 | > 30 | > 10 | > 30 | > 300 | > 30 | > 30 |  |  |  | 
4 | CCc1nn(CCCN2CCN(c3cccc(Cl)c3)CC2)c(=O)n1CCOc1ccccc1 [NEFAZODONE] | > 30 | > 30 | 19.2 | > 10 | > 10 | > 30 | > 30 | > 10 | 13.3 | 6 | > 30 | > 30 |  |  |  | 
5 | O=C(O)c1cc(-c2ccc(F)cc2F)ccc1O [DIFLUNISAL] | > 10 | > 10 | > 10 | > 10 | > 30 | > 10 | > 10 | > 10 | > 10 | 160 | > 10 |  |  |  |  | 
6 | CC(C)NCC(O)COc1ccc(COCCOC(C)C)cc1 (stereo not drawn) [BISOPROLOL] | > 30 | > 30 | > 30 | > 10 | > 10 | > 30 | > 30 |  | > 30 | > 300 | > 30 |  | > 30 |  |  | 
7 | CS(=O)(=O)c1ccc([C@@H](O)[C@@H](CO)NC(=O)C(Cl)Cl)cc1 [THIAMPHENICOL] | > 30 |  | > 30 | > 30 | > 30 | > 30 | > 30 | > 30 | > 30 | > 300 | > 30 | > 30 |  | > 30 | > 30 | > 30
8 | CC(C)(C(=O)c1cccnc1)c1cccnc1 [METYRAPONE] | > 10 | > 10 | > 10 | > 10 | > 30 | > 10 | > 10 | > 10 | > 10 | 280 | > 10 |  |  |  |  | 
